Experimental data taken from PMC12461331, “Screening of Medicines for Malaria Venture Open Boxes Identifies Potent SARS-CoV‑2 Papain-like Protease (PL^pro) Inhibitors” (ACS Omega, 2025).
Values after ≈ are worked out from the molar mass of the structure shown. Values joined by “and” are separate entries in the source; they are usually repeats but may differ in a detail not shown here. Equal values may be shown once. Read-outs that look alike come from different tables or passages of the source.

How the values were obtained:
[1] = in vitro; conditions: PAMPA
[2] = in vitro; conditions: CD1, mouse, microsomes, pH 7.4
[3] = physchem; conditions: 25 °C, kinetic from dmso stock
[4] = Plasma stability; conditions: for half-life at 2 μM: female, BALB/c, mouse, plasma, pH 7.4
[5] = Human liver microsomal stability assay; conditions: human
[6] = target: PL^pro (Severe acute respiratory syndrome coronavirus 2, UniProt P0DTD1); conditions: 20 μM compound, 5 μM enzyme, average of triplicates with SD
[7] = in vitro; conditions: human, microsomes, pH 7.4
[8] = physchem; conditions: pH 7.4
[9] = human, microsomes
[10] = Mouse liver microsomal stability assay; conditions: CD1, mouse, pH 7.4
[11] = female, BALB/c, mouse, 1 h, 2 μM, pH 7.4
[12] = target: SARS-CoV-2 PL^pro (Severe acute respiratory syndrome coronavirus 2, UniProt P0DTD1); assay type: biochemical
[13] = system: SARS-CoV-2; conditions: Vero CCL-81 cells, 1 μM
[14] = system: SARS-CoV-2; assay: microbe, parasite or virus in culture
[15] = system: uninfected HeLa-ACE2 cells; conditions: Hela-ACE2 Uninfected Cell Toxicity
[16] = system: HeLa-ACE2 cells; conditions: Hela-ACE2 CoV-2 Total Cell count
[17] = system: SARS-CoV-2
[18] = in vitro; conditions: human, uninfected HeLa-ACE2 cells
[19] = system: HeLa-ACE2 cells; assay: cells; conditions: Homo sapiens
[20] = Chromatographic distribution coefficient (eLogD7.4); conditions: pH 7.4
[21] = Kinetic solubility; conditions: 25 °C, kinetic from dmso stock
[22] = Parallel artificial membrane permeability assay (PAMPA)
[23] = Hela-ACE2 % Positive SARS-CoV-2, curve fit

Structure (SMILES) | Papp at 5 h, 10 μM [1] [×10⁻⁶ cm/s] | microsomal CLint at 0.5 μM [2] [µL/min/mg] | solubility kinetic at 24 h ([3]; pH 2, aqueous buffer) [µg/mL] | solubility kinetic at 24 h ([3]; pH 7.4, aqueous buffer) [µg/mL] | half-life at 2 μM [4] [min] | half-life at 0.5 μM ([5]; liver microsomes, pH 7.4) [min] | ΔT m [6] | microsomal CLint at 0.5 μM [7] [µL/min/mg] | chromatographic logD [8] | metabolic stability (in words) [9] | half-life at 0.5 μM ([10]; liver microsomes) [min] | plasma stability remaining 60 min [11] [%] | further results
CC[C@@H](C)N1CCC(C(=O)NCc2ccc(OC)cc2)CC1 (racemic) [Compound 14] | 0.77 | 65.6 | > 18.4 | > 18.3 | 224 | 301 | 1.20 ± 0.06 °C | < 12 | 1.61 | improved stability | 42.3 | 30.29 | 
N=C(N)NCCCCC(=O)Nc1cc(C(F)(F)F)cc(NC(=O)c2cc(C(=O)Nc3cc(C(F)(F)F)cc(NC(=O)CCCCNC(=N)N)c3O[C@@H]3CCNC3)ncn2)c1O[C@@H]1CCNC1 [Brilacidin, reference compound] |  |  |  |  |  |  |  |  |  |  |  |  | inhibition of SARS-CoV-2 PL^pro [12]: ≥ 80%; decrease of viral replication (viral load by RT-PCR) [13]: over 50%
COc1ccc(CNC(=O)C2CCN([C@@H](C)c3ccccc3)CC2)cc1 [Compound 2] | 1.47 | 300 | > 22.1 | > 22 |  | 114 | 1.5 °C and 1.50 ± 0.05 °C | 24.4 | 3 | improved stability | 9.25 | 91.46 | 
Cc1ccc(CNC(=O)C2CCN([C@H](C)c3cccc4ccccc34)CC2)cc1 [Compound 4] | 0.78 | 214 | > 24.2 | 8.09 (≈ 20.9 µM) | 385 | 35.4 | 7.98 °C and 7.9 ± 0.6 °C | 78.4 | 4.56 |  | 13 | 58.47 | AC50 ([14]; Severe acute respiratory syndrome coronavirus 2, HeLa-ACE2, read-out: Log AC50 (converted)): > 9.61 µM; EC50 ([14]; Severe acute respiratory syndrome coronavirus 2, HeLa-ACE2, read-out: SARS-CoV-2 EC50, HeLa-ACE2 cells, average of triplicates): > 9.61 µM; EC50 ([14]; Severe acute respiratory syndrome coronavirus 2, HeLa-ACE2, read-out: qAC50, Hela-ACE2 % Positive SARS-CoV-2, relation in column qAC50 Mode, unit inferred): > 9.61 µM; Data Mode [15]: inactive; qAC50 ([15]; relation in column qAC50 Mode, unit not given): > 3.984e-5; Data Mode [16]: inactive; CoV2 Efficacy (delta S0:Sinf) ([17]; HeLa-ACE2): 103.282; Data Mode ([17]; Hela-ACE2 % Positive SARS-CoV-2): decreasing (weakly active); S0 [17, 23]: 3.282; Sinf [17, 23]: -100; nHill [17, 23]: 1.703; CC50 at 24 h ([18]; uninfected HeLa-ACE2 CC50, supplement summary): > 39.8 µM; CC50 at 24 h ([18]; uninfected HeLa-ACE2 CC50, uninfected HeLa-ACE2 cells, average of triplicates): > 39.8 µM; EC50 ([19]; HeLa-ACE2, read-out: HeLa-ACE2 Total cells EC50): > 9.61 µM; EC50 ([19]; HeLa-ACE2, read-out: qAC50): > 9.61 µM
COc1ccc(CC(=O)N2CCN([C@@H](C)c3cccc4ccccc34)CC2)cc1 [Compound 8] |  |  |  |  |  |  | 0.28 ± 0.05 °C |  |  |  |  |  | chromatographic logD [20]: 4.56; solubility kinetic at 24 h ([21]; pH 2, aqueous buffer): > 22.9 µg/mL; solubility kinetic at 24 h ([21]; pH 7.4, aqueous buffer): > 15.8 µg/mL; plasma stability remaining 60 min ([4]; mouse plasma, 60 min): 84.48%; microsomal CLint at 0.5 μM ([5]; microsomes, pH 7.4, HLM CLint(mic), human liver microsomes): 186 µL/min/mg; half-life at 0.5 μM ([5]; microsomes, pH 7.4, HLM T 1/2, human liver microsomes): 14.9 min; half-life at 0.5 μM ([10]; microsomes): 7.97 min; microsomal CLint at 0.5 μM ([10]; microsomes): 348 µL/min/mg; Papp at 5 h, 10 μM [22]: 1.07 ×10⁻⁶ cm/s
